Assay results taken from ChEMBL document CHEMBL4261615, “Design, synthesis, biological evaluation and cellular imaging of imidazo[4,5-b]pyridine derivatives as potent and selective TAM inhibitors” (Bioorg Med Chem, 2018).
The source made the active and inactive calls. No cut-off for these calls is given here.

Assays:
[1] = molecular target: T1, Tyrosine-protein kinase receptor UFO (Homo sapiens, UniProt P30530); test: Inhibition of recombinant His-tagged human Axl (473 to end residues) cytoplasmic domain expressed in insect system using poly (Glu-Ala-Tyr) peptide as substrate after 5 mins in presence of ADP by fluorescence analysis
T1 sequence (P30530 whole entry): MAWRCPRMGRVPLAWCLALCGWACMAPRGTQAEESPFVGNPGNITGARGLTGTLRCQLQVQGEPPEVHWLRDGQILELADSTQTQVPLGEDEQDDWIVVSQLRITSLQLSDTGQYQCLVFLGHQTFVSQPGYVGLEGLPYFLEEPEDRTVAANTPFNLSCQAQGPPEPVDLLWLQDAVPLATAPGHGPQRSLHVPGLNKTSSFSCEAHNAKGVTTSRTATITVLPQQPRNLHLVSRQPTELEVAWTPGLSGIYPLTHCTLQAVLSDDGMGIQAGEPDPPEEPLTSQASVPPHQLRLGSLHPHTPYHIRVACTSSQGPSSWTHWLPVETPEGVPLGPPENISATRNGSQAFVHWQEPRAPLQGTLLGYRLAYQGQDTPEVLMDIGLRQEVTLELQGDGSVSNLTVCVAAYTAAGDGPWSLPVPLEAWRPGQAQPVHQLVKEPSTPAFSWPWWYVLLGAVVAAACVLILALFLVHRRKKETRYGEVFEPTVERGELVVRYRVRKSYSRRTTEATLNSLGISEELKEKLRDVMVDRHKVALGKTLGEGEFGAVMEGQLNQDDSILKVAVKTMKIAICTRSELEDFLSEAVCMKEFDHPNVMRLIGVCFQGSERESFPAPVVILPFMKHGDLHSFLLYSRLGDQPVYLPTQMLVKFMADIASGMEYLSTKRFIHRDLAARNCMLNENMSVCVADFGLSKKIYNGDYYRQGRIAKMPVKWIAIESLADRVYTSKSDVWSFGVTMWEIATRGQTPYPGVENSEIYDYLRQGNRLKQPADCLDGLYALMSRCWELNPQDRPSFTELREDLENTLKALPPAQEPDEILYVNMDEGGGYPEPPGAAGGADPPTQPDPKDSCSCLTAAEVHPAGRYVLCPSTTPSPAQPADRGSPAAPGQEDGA

[2] = molecular target: Tyrosine-protein kinase ABL1 (Homo sapiens) (UniProt P00519); test: Binding affinity to human wild type ABL1 (229 to 512 residues) expressed in mammalian expression system assessed as fraction of unbound kinase to substrate at 10 uM after 1 hr by KinomeScan assay
Chain of Tyrosine-protein kinase ABL1 (Homo sapiens) (P00519 whole entry, the tested form may be a part): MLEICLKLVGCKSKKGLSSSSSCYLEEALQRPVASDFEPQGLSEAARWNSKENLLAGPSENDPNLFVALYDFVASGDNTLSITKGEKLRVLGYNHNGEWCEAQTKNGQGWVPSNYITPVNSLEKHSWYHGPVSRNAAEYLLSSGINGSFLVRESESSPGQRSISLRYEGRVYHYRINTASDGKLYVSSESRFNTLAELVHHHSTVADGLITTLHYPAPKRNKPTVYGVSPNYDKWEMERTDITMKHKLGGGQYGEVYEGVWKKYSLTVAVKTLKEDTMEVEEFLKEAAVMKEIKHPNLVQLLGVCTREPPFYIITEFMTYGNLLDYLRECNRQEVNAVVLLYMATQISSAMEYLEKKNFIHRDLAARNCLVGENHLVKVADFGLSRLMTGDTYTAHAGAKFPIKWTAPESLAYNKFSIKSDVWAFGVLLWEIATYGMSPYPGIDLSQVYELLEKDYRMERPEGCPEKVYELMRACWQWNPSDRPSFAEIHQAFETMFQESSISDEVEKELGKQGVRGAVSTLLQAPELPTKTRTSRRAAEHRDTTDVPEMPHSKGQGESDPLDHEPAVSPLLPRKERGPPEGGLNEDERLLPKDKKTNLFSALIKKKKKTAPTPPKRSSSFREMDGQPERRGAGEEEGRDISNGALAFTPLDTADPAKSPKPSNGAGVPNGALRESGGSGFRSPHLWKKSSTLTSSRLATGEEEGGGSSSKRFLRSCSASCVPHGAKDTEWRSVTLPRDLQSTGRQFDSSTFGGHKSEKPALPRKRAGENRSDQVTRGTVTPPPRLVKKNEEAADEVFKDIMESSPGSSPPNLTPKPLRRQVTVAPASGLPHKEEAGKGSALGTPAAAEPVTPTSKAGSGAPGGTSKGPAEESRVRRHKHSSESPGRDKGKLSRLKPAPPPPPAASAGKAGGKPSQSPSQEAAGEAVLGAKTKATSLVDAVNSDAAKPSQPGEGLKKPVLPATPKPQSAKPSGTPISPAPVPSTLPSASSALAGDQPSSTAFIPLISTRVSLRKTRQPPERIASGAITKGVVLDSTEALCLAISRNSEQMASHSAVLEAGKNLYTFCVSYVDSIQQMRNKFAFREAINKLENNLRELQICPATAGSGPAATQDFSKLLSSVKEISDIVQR

[3] = molecular target: T2, Aurora kinase A (Homo sapiens) (UniProt O14965); test: Binding affinity to wild-type human partial length AURKA (E122 to K401 residues) expressed in mammalian expression system assessed as fraction of unbound kinase to substrate at 1 uM after 1 hr by KinomeScan assay
T2 sequence (whole entry): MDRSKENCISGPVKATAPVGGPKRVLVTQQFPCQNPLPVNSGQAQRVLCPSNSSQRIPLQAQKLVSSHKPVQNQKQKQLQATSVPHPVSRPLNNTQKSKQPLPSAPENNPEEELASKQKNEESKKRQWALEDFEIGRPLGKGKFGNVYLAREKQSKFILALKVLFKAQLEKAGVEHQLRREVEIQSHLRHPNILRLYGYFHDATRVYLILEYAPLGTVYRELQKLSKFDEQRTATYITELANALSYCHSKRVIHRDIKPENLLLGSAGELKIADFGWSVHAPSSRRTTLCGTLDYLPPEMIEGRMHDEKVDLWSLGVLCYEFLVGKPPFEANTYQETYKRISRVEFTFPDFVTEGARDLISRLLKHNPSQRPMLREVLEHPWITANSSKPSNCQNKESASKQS

[4] = molecular target: Fibroblast growth factor receptor 1 (Homo sapiens) (UniProt P11362); test: Binding affinity to wild-type human partial length FGFR1 (P357 to V669 residues) expressed in bacterial expression system assessed as fraction of unbound kinase to substrate at 1 uM after 1 hr by KinomeScan assay
Chain of Fibroblast growth factor receptor 1 (Homo sapiens) (P11362 22-822 limits assumed): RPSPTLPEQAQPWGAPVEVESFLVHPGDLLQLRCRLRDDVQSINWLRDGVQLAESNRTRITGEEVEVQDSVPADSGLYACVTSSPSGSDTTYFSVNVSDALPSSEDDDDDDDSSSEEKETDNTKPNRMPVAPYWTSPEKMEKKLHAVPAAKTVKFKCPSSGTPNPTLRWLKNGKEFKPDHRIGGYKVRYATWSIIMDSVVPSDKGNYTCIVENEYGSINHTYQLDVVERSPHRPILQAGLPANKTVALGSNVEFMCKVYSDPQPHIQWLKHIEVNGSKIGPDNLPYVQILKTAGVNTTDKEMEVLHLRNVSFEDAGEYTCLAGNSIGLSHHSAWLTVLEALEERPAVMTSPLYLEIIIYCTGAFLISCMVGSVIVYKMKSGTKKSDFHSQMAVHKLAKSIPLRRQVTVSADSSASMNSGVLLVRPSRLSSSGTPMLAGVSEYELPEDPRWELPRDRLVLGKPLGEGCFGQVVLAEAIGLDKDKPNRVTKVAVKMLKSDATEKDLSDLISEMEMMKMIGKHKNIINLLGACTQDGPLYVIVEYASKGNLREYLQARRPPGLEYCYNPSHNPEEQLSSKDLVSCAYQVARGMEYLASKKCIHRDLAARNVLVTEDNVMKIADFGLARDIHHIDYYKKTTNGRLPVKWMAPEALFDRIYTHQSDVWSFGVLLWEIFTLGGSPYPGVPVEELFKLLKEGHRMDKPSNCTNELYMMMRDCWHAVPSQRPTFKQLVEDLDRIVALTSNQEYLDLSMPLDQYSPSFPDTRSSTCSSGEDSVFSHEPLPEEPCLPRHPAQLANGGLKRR

[5] = molecular target: Hepatocyte growth factor receptor (Homo sapiens) (UniProt P08581); test: Binding affinity to human MET (D1010 to S1367 residues) expressed in bacterial expression system assessed as fraction of unbound kinase to substrate at 0.1 uM after 1 hr by KinomeScan assay
Chain of Hepatocyte growth factor receptor (Homo sapiens) (P08581 whole entry, the tested form may be a part): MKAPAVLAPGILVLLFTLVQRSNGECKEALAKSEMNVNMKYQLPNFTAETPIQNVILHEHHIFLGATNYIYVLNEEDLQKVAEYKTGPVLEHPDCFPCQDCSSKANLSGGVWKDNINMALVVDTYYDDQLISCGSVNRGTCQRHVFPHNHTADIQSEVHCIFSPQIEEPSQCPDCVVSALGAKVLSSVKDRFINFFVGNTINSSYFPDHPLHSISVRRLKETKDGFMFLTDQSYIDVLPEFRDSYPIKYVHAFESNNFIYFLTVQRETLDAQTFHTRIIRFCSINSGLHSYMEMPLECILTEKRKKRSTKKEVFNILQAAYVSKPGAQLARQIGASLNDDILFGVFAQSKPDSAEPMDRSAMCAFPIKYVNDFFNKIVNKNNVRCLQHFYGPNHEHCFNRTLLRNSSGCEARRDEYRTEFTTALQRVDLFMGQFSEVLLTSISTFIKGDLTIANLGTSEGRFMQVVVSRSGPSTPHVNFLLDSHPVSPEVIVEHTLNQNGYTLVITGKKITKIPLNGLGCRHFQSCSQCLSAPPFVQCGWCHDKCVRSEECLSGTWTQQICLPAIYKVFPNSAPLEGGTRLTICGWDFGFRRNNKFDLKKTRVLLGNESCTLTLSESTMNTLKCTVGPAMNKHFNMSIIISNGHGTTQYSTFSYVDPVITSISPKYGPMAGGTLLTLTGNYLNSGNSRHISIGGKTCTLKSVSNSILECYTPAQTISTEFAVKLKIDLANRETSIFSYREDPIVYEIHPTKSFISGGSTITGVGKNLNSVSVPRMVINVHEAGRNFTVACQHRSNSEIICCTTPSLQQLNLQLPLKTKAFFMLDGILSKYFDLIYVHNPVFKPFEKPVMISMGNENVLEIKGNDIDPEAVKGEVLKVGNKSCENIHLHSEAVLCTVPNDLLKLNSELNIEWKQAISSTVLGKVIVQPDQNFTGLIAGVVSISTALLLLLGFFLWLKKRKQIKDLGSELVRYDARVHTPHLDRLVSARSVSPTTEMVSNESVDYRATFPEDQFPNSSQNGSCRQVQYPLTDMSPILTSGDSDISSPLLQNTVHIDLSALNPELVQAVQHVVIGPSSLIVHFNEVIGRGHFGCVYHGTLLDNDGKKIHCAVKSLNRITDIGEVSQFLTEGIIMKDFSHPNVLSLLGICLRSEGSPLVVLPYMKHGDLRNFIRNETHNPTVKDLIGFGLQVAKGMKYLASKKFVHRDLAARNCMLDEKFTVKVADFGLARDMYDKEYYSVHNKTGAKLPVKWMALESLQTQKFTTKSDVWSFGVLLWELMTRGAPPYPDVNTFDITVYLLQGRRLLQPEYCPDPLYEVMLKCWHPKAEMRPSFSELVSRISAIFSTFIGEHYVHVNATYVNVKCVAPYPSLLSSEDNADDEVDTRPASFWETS

[6] = molecular target: Hepatocyte growth factor receptor (Homo sapiens) (UniProt P08581); test: Binding affinity to human MET (D1010 to S1367 residues) expressed in bacterial expression system assessed as fraction of unbound kinase to substrate at 10 uM after 1 hr by KinomeScan assay
[7] = molecular target: Tyrosine-protein kinase receptor UFO (Homo sapiens) (UniProt P30530); test: Binding affinity to human AXL (R497 to Y821 residues) expressed in bacterial expression system assessed as fraction of unbound kinase to substrate at 10 uM after 1 hr by KinomeScan assay
[8] = tested on: RT-112; test: Antiproliferative activity against human RT112 cells after 72 hrs by CellTiter-Glo assay; type: functional, cell-based
[9] = tested on: A549; test: Antiproliferative activity against human A549 cells after 72 hrs by CellTiter-Glo assay; type: functional, cell-based

SMILES	IC50 [1] [nM]	Activity [2] [%]	Activity [3] [%]	Activity [4] [%]	Activity [5] [%]	Activity [6] [%]	Activity [7] [%]	Activity [8]	Activity [9]
Cc1cnc2[nH]cnc2c1Oc1ccc(NC(=O)c2cccn(-c3ccc(F)cc3)c2=O)cc1F	> 100000	3	6	2	54	96.2	90.1	inactive	inactive
O=C(Nc1ccc(Oc2ccnc3[nH]cnc23)c(F)c1)c1cccn(-c2ccc(F)cc2)c1=O	0.77	34	2	2	83	97	93.3	inactive	inactive
CC(C)c1nc2c(Oc3ccc(NC(=O)c4cccn(-c5ccc(F)cc5)c4=O)cc3F)ccnc2[nH]1	70	17	2	1	83	96.6	89	inactive	inactive
O=C(Nc1ccc(Oc2c(Br)cnc3[nH]cnc23)c(F)c1)c1cccn(-c2ccc(F)cc2)c1=O	2000	0	9	1	12	96.4	90.4		
